Measurements as given in patent US12173026B2, “PRMT5 inhibitors” (Merck Sharp & Dohme LLC, priority 2018, dated 2024).
pEC50: −log10 of the molar value.

system: symmetric dimethylation of arginine (SDMA) of PRMT5 substrates in MCF-7 cells; test: PRMT5 Cell Target Engagement (TE) Assay; format: cell-based; conditions: Homo sapiens, MCF7, 72 h; MCF-7 cells treated for 3 days; nuclear SDMA by high content imaging; top concentration 10000 nM
Text: PRMT5 Cell Target Engagement (TE) Assay
The PRMT5 TE assay is a biomarker assay for identifying compounds that inhibit symmetric dimethylation of arginine (SDMA) of PRMT5 substrates. The following substrates have been reported for PRMT5: Histone H2A and H4 R3, Histone H3 R2, Histone 1-13 R8, spliceosome Sm proteins, ribosomal protein RPS10, p53, FEN1, nucleoplasmin, nucleolin, EGFR and EBNA. The assay will focus on detecting symnetrically dimethylated nuclear proteins using high content imaging technology. Detection of the expression of symmetrically dimethylated nuclear proteins is through a mixture of primary rabbit monoclonal antibodies to SDMA (CST 13222) which in turn recognized by an Alexafluor 488 dye-conjugated anti-rabbit IgG secondary antibody. The IN Cell Analyzer 2200 or Opera-Phenix measures nuclear Alexafluor 488 fluorescent dye intensity that is directly related to the level of expression of symmetrically dimethylated nuclear proteins at the single cell level. Nuclear AF488 dye intensities are compared to the mean value for DMSO treated cells (MIN) to report percent of inhibition for each compound-treated well.
In this assay, the cell potency (EC50) of each compound was determined from a ten point (1:3 serial dilution; top compound concentration of 10000 nM) titration curve using the following outlined procedure. Each well of a BD falcon collagen coated black/clear bottom 384-well plate was seeded with 4000 MCF-7 cells in 30 pal media and allowed to attach for 5 hours. Media is ATCC-formulated Eagle's Minimum Essential Medium, Catalog No. 30-2003. The following components were added to the base medium: 0.01 mg/mL human recombinant insulin; fetal bovine serum to a final concentration of 10%. Additional 30 pal of media containing 2× compounds were added to each well. Cells were treated for 3 days in 37° C. CO2 incubator. On day 3, cells were fixed with Cytofix, permeabilized with 0.4% Triton-X-100/Cytofix, and washed with D-PBS without Ca/Mg. Cells were blocked with Licor Odessey blocking reagent for 1 hour at room temperature, followed by incubation with anti-SDMA (1:1000) antibody at 4° C. overnight. 1° antibody was removed, followed by three washings with DPBS without Ca/Mg and 0.05% Tween20. Hoechst (5 μg/mL), Cell Mask deep stain (1:2000) and Alexa488-conjugated goat anti-rabbit IgG (2 μg/mL) was added for 1 hour at room temperature. A final washing step (three washes) was performed before sealing plate for imaging on in Cell Analyzer 2200 or Opera-Phenix. Images from analyzer were uploaded to Columbus for image analysis. IC50 values were determined by 4 parameters robust fit of percent fluorescence units vs. (Log 10) compound concentrations.

Structure (SMILES)	pEC50
Nc1nc2cc(O[C@H]3CC[C@@]4(O)[C@@H]3O[C@@H](n3cc(C5CC5)c5c(N)ncnc53)[C@@H]4O)ccc2cc1Br [Example 52, (2R,3R,3aS,6S,6aR)-6-[(2-amino-3-bromoquinolin-7-yl)oxy]-2-(4-amino-5-cyclopropyl-7H-pyrrolo[2,3-d]pyrimidin-7-yl)hexahydro-3aH-cyclopenta[b]furan-3,3a-diol]	7.12
Nc1nc2cc(O[C@H]3CC[C@@]4(O)[C@@H]3O[C@@H](n3ccc5c(N)ncnc53)[C@@H]4O)ccc2cc1C(F)F [Example 128, (2R,3R,3aS,6S,6aR)-6-((2-amino-3-(difluoromethyl)quinolin-7-yl)oxy)-2-(4-amino-7H-pyrrolo[2,3-d]pyrimidin-7-yl)hexahydro-3aH-cyclopenta[b]furan-3,3a-diol]	7.81
Nc1ncc2c(F)cn([C@@H]3O[C@@H]4[C@@H](Oc5ccc6cc(Br)c(N)nc6c5)CC[C@]4(O)[C@H]3O)c2n1 [Example 130, (2R,3R,3aS,6S,6aR)-6-((2-amino-3-bromoquinolin-7-yl)oxy)-2-(2-amino-5-fluoro-7H-pyrrolo[2,3-d]pyrimidin-7-yl)hexahydro-3aH-cyclopenta[b]furan-3,3a-diol]	6.87
C[C@]1(CCc2ccc3cc(Br)c(N)nc3c2)C[C@@H](n2ccc3c(N)ncnc32)[C@H](O)[C@]1(C)O [Example 117, (1R,2S,3R,5S)-5-(2-(2-amino-3-bromoquinolin-7-yl)ethyl)-3-(4-amino-7H-pyrrolo[2,3-d]pyrimidin-7-yl)-1,5-dimethylcyclopentane-1,2-diol]	8.07
C[C@@]1(CCc2ccc3cc(F)c(N)nc3c2)C[C@@H](n2ccc3c(N)ncnc32)[C@H](O)[C@@H]1O [Example 116, (1S,2R,3R,5R)-3-(2-(2-amino-3-fluoroquinolin-7-yl)ethyl)-5-(4-amino-7H-pyrrolo[2,3-d]pyrimidin-7-yl)-3-methylcyclopentane-1,2-diol]	7.27
Nc1nc2cc(O[C@H]3CC[C@@]4(O)[C@@H]3O[C@@H](n3cc(-c5ccccc5)c5c(N)ncnc53)[C@@H]4O)ccc2cc1Br [Example 49, (2R,3R,3aS,6S,6aR)-6-[(2-amino-3-bromoquinolin-7-yl)oxy]-2-(4-amino-5-phenyl-7H-pyrrolo[2,3-d]pyrimidin-7-yl)hexahydro-3aH-cyclcopenta[b]furan-3,3a-diol]	7.89
Cc1ncnc2c1ccn2[C@@H]1O[C@@H]2[C@H](Cc3ccc4cc(C(F)(F)F)c(N)nc4c3)CC[C@]2(O)[C@H]1O [Example 88, (2R,3R,3aS,6S,6aR)-6-((2-amino-3-(trifluoromethyl)quinolin-7-yl)methyl)-2-(4-methyl-7H-pyrrolo[2,3-d]pyrimidin-7-yl)hexahydro-3aH-cyclopenta[b]furan-3,3a-diol]	7.60
Cc1ncnc2c1ccn2[C@@H]1O[C@@H]2[C@@H](Cc3ccc4cc(Cl)c(N)nc4c3)CC[C@]2(O)[C@H]1O [Example 131, (2R,3R,3aS,6R,6aR)-6-((2-amino-3-chloroquinolin-7-yl)methyl)-2-(4-methyl-7H-pyrrolo[2,3-d]pyrimidin-7-yl)hexahydro-3aH-cyclopenta[b]furan-3,3a-diol]	7.67
Nc1nc2cc(O[C@H]3CC[C@@]4(O)[C@@H]3O[C@@H](n3ccc5c(Cl)ncnc53)[C@@H]4O)ccc2cc1Br [Example 5, (2R,3R,3aS,6S,6aR)-6-((2-amino-3-bromoquinolin-7-yl)oxy)-2-(4-chloro-7H-pyrrolo[2,3-d]pyrimidin-7-yl)hexahydro-2H-cyclopenta[b]furan-3,3a-diol]	7.72
Nc1nc2cc(O[C@H]3CC[C@@]4(O)[C@@H]3C[C@@H](n3ccc5c(N)ncnc53)[C@@H]4O)ccc2cc1Br [Example 119, (1S,2R,3aR,4S,6aR)-4-((2-amino-3-bromoquinolin-7-yl)oxy)-2-(4-amino-7H-pyrrolo[2,3-d]pyrimidin-7-yl)hexahydropentalene-1,6a(1H)-diol 2,2,2-trifluoroacetate]	6.74

Compounds with a higher pEC50, results first:

pEC50	Structure (SMILES)
8.15	Nc1ccc2ccc(O[C@H]3CC[C@@]4(O)[C@@H]3O[C@@H](n3ccc5c(N)ncnc53)[C@@H]4O)cc2n1 [Example 104, (2R,3R,3aS,6S,6aR)-2-(4-amino-7H-pyrrolo[2,3-d]pyrimidin-7-yl)-6-((2-aminoquinolin-7-yl)oxy)hexahydro-2H-cyclopenta[b]furan-3,3a-diol]
8.20	Cc1nc(C)c2ccn([C@@H]3O[C@@H]4[C@H](Cc5ccc6cc(Cl)c(N)nc6c5)CC[C@]4(O)[C@H]3O)c2n1 [Example 91, (2R,3R,3aS,6S,6aR)-6-((2-amino-3-chloroquinolin-7-yl)methyl)-2-(2,4-dimethyl-7H-pyrrolo[2,3-d]pyrimidin-7-yl)hexahydro-3aH-cyclopenta[b]furan-3,3a-diol]
8.34	Nc1nc2cc(C[C@@H]3CC[C@@]4(O)[C@@H]3O[C@@H](n3cc(F)c5c(N)ncnc53)[C@@H]4O)ccc2cc1F [Example 59, (2R,3R,3aS,6S,6aR)-6-((2-amino-3-fluoroquinolin-7-yl)methyl)-2-(4-amino-5-fluoro-7H-pyrrolo[2,3-d]pyrimidin-7-yl)hexahydro-3aH-cyclopenta[b]furan-3,3a-diol]
8.40	Cc1ncnc2c1ccn2[C@@H]1O[C@@H]2[C@@H](Oc3ccc4cc(Cl)c(N)nc4c3)CC[C@]2(O)[C@H]1O [Example 112, (2R,3R,3aS,6S,6aR)-6-((2-amino-3-chloroquinolin-7-v)oxy)-2-(4-methyl-7H-pyrrolo[2,3-d]pyrimidin-7-yl)hexahydro-2H-cyclopenta[b]furan-3,3a-diol]
8.40	Nc1nc2c(F)c(C[C@@H]3CC[C@@]4(O)[C@@H]3O[C@@H](n3ccc5c(N)ncnc53)[C@@H]4O)ccc2cc1Cl [Example 26, (2R,3R,3aS,6S,6aR)-6-((2-amino-3-chloro-8-fluoroquinolin-7-yl)methyl)-2-(4-amino-7H-pyrrolo[2,3-d]pyrimidin-7-yl)hexahydro-3aH-cyclopenta[b]furan-3,3a-diol]
8.43	Cc1cn([C@@H]2O[C@@H]3[C@H](Cc4ccc5cc(F)c(N)nc5c4)CC[C@]3(O)[C@H]2O)c2ncnc(N)c12 [Example 62, (2R,3R,3aS,6S,6aR)-6-((2-amino-3-fluoroquinolin-7-yl)methyl)-2-(4-amino-5-methyl-7H-pyrrolo[2,3-d]pyrimidin-7-yl)hexahydro-3aH-cyclopenta[b]furan-3,3a-diol 2,2,2-trifluoroacetate]
8.82	Cc1cn([C@@H]2O[C@@H]3[C@@H](Oc4ccc5cc(Br)c(N)nc5c4)CC[C@]3(O)[C@H]2O)c2ncnc(N)c12 [Example 60, (2R,3R,3aS,6S,6aR)-6-((2-amino-3-bromoquinolin-7-yl)oxy)-2-(4-amino-5-methyl-7H-pyrrolo[2,3-d]pyrimidin-7-yl)hexahydro-3aH-cyclopenta[b]furan-3,3a-diol]
9.05	Cc1ncnc2c1ccn2[C@@H]1C[C@@H]2[C@H](Cc3ccc4cc(Cl)c(N)nc4c3)CC[C@]2(O)[C@H]1O [Example 17, (1S,2R,3aR,4S,6aR)-4-((2-amino-3-chloroquinolin-7-yl)methyl)-2-(4-methyl-7H-pyrrolo[2,3-d]pyrimidin-7-yl)hexahydropentalene-1,6a(1H)-diol]
9.10	Cc1nc(N)nc2c1ccn2[C@@H]1O[C@@H]2[C@H](Cc3ccc4cc(Br)c(N)nc4c3)CC[C@]2(O)[C@H]1O [Example 127, (2R,3R,3aS,6S,6aR)-6-((2-amino-3-bromoquinolin-7-yl)methyl)-2-(2-amino-4-methyl-7-pyrrolo[2,3-d]pyrimidin-7-yl)hexahydro-3aH-cyclopenta[b]furan-3,3a-diol]
9.15	Cc1cn([C@@H]2C[C@@H]3[C@H](Cc4ccc5cc(Br)c(N)nc5c4)CC[C@]3(O)[C@H]2O)c2ncnc(N)c12 [Example 40, (1S,2R,3aR,4S,6aR)-4-((2-amino-3-bromoquinolin-7-yl)methyl)-2-(4-amino-5-methyl-7H-pyrrolo[2,3-d]pyrimidin-7-yl)hexahydropentalene-1,6a(1H)-diol]
9.22	Cc1cn([C@@H]2C[C@@H]3[C@H](Cc4ccc5cc(F)c(N)nc5c4)CC[C@]3(O)[C@H]2O)c2ncnc(N)c12 [Example 38, (1S,2R,3aR,4S,6aR)-4-((2-amino-3-fluoroquinolin-7-yl)methyl)-2-(4-amino-5-methyl-7H-pyrrolo[2,3-d]pyrimidin-7-yl)hexahydropentaiene-1,6a(1H)-diol]
